Results: patent publication US20260184712A1, “Heterocyclic Compounds as ENT Inhibitors and Compounds for Use in the Treatment of Cancers” (iTeos Belgium SA, priority 2022, published 2026)

test system: stimulated primary human T cells; experiment: T cell proliferation assay, Condition A (X-VIVO15); type: cell-based; conditions: Homo sapiens, T-cell, 96 h; Condition A: X-VIVO15 medium; anti-CD3/anti-CD28 beads, ATP, 4 days; CFSE-lo T cells
Protocol: (§1) The goal of this study was to determine the potency of ENT1 inhibitors by measuring the rescued proliferation of stimulated primary human T cells incubated in the presence of 100 uM Adenosine triphosphate (ATP), in baseline conditions (condition A) or in the presence of various proteins known to bind small molecules (condition B).
(§2) Venous blood from healthy volunteers, all of whom signed an informed consent approved by the Ethics Committee (FOR—UIC—BV-050-01-01 ICF_HBS_HD Version 5.0), was obtained by ImmuneHealth (Centre Hospitalier Universitaire Tivoli, La Louviere, Belgium). Mononuclear cells were collected by density gradient centrifugation, using SepMate-50 tubes (StemCell Technologies, Grenoble, France) and Lymphoprep (Stemcell Technologies) according to the manufacturer's instructions. CD3+ T cells were isolated by immunomagnetic negative selection, using the EasySep Human T Cell Isolation Kit (StemCell Technologies) as per the manufacturer's instructions. CD3+ T cells were stored in heat inactivated FBS (hiFBS; Gibco, ThermoFisher Scientific, Merelbeke, Belgium) and 10% DMSO in liquid nitrogen.
(§3) Purified human CD3+ T cells were thawed and washed once with RPMI1640 medium, UltraGlutamine (Lonza, Verviers, Belgium) containing 10% hiFBS. Cells were resuspended in PBS containing 10% hiFBS at 1×10^7 cells/ml. One volume of cells was combined with a matching volume of 2 μM CFSE solution in PBS, mixed well by pipetting, and incubated at room temperature for 5 minutes under rotation and protected from light. Excess CFSE was quenched by addition of PBS containing 10% hiFBS, and the cells were centrifuged (300×rcf, 7 minutes) and resuspended in X-VIVO15. Cells were again centrifuged and resuspended in X-VIVO15 for counting.
(§4) Cells were resuspended at 1.6×10^6 cells/mL in X-VIVO15 medium (Condition A) or X-VIVO15 medium containing 4% (v/v) HSA (Sigma-Aldrich, Diegem, Belgium) and 0.2% (v/v) ai-Acid Glycoprotein (Sigma-Aldrich, Diegem, Belgium) (Condition B).
(§5) […] of cell suspension (2×10^4 cells) was added to wells of sterile flat-bottom 384-well plates. Cells were activated by adding […] of anti-CD3 anti-CD28 coated microbeads (Dynabeads human T-activator CD3/CD28; Life Technologies, Paisley, UK) suspended in X-VIVO15 medium or X-VIVO15 medium containing 4% (v/v) HSA and 0.2% (v/v) ai-Acid Glycoprotein at a ratio of one microbead per two cells. Serial dilutions of the ENT1 inhibitors were conducted in X-VIVO15 medium and […] of the diluent was added to the wells. Cells were mixed by pipetting up and down and pre-incubated for 30 minutes in a 37° C. humidified tissue culture incubator with 5% CO2. After pre-incubation, cells were cultured in the presence or absence of ATP (Sigma-Aldrich) at a final concentration of […]. The final well volume was 50 μl in all cases. Experiments were performed in biological duplicates. Cells were mixed by pipetting up and down and incubated for 4 days in a 37° C. humidified tissue culture incubator with 5% CO2.
(§6) Samples were run on a BD LSR Fortessa FACS machine (BD FACSDiva Software v9.0.1). Data were analyzed using FlowJo (BD, v10.7.1). T cell proliferation was determined by measuring the frequency of ‘CFSE^lo’ (i.e. CFSE-diluted).
(§7) T cell proliferation data were analyzed using FlowJo software (Version 10.6.2). Dead cells and cellular debris were excluded on the basis of forward and side scatter profile and singlet cells were selected for further analysis.
(§8) T cell proliferation was determined based on the percent CFSE^lo total T cells for each condition. The data were plotted on the y-axis against log molar (M) concentration of ENT1 inhibitors on the x-axis in GraphPad Prism (version 9.0.0). IC50 and IC90 values were generated with the ‘log(agonist) vs. response—Find ECanything(F))’ function with F constrained to 50 or 90, respectively. pICF values were generated by taking the −logECF values.

Row | SMILES | IC50 [nM]
1 | C[C@H]1O[C@@H](n2cnc3c(N(C)Cc4ccc([N+](=O)[O-])cc4)ncnc32)[C@H](O)[C@@H]1O [Compound 177] | 20 to 500
2 | C[C@H]1O[C@@H](n2cnc3c(OCc4cc(F)c(F)c(F)c4)ncnc32)[C@H](O)[C@@H]1O [Compound 200] | 1 to 20
3 | C[C@H]1O[C@@H](n2c(NCCO)nc3c(OCc4ccc([N+](=O)[O-])cc4)ncnc32)[C@H](O)[C@@H]1O [Compound 21] | 1 to 20
4 | C[C@H]1O[C@@H](n2c(NC3CCCC3)nc3c(OCc4ccc(C#N)cc4)ncnc32)[C@H](O)[C@@H]1O [Compound 12] | < 1
5 | C[C@H]1O[C@@H](n2c(N[C@@H]3CCC(F)(F)C3)nc3c(OCc4ccc(C#N)cc4)ncnc32)[C@H](O)[C@@H]1O [Compound 81] | < 1
6 | C[C@H]1O[C@@H](n2c(NCCC3CCN(C)CC3)nc3c(OCc4ccc([N+](=O)[O-])cc4)ncnc32)[C@H](O)[C@@H]1O [Compound 34] | 1 to 20

molecular target: T1, human ENT1 (Homo sapiens, UniProt Q99808); experiment: ENT1 binding assay (competition with Sahenta-DY647 on JAR cells); conditions: competition with SAHENTA-DY647 binding; IC50 categorized; read-out: Binding Assay IC50
T1 construct: JAR cells expressing ENT1 were purchased from ATCC; host or cells: JAR cells
T1 sequence (Q99808 1-456): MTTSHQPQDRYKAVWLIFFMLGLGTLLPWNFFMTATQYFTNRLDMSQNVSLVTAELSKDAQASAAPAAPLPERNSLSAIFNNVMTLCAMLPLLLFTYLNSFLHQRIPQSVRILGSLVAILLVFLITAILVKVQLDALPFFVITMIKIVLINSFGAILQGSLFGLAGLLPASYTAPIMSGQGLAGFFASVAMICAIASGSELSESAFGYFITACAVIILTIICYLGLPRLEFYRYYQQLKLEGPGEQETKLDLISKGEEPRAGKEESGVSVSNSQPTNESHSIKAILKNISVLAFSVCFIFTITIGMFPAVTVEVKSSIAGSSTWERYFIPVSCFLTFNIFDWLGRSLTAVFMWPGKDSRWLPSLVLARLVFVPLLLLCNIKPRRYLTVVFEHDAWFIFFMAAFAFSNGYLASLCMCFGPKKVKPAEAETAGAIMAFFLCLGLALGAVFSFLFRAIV
In short: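 Fluorescent-tracer displacement: compound incubated with JAR cells 30 min, 4 °C, before Sahenta-DY647 (100 nM) for another 30 min, 4 °C, in Hepes-buffered HBSS with 0.1% BSA. Bound tracer read at 670 nm after washes; IC50 from four-parameter fit, reported as mean of pIC50 values.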

Row | IC50 [nM] | SMILES
7 | 20 to 500 | C[C@H]1O[C@@H](n2cnc3c(N(C)Cc4ccc([N+](=O)[O-])cc4)ncnc32)[C@H](O)[C@@H]1O [Compound 177]
8 | 1 to 20 | C[C@H]1O[C@@H](n2c(NC3CCCC3)nc3c(OCc4ccc(C#N)nc4)ncnc32)[C@H](O)[C@@H]1O [Compound 74]
9 | 20 to 500 | C[C@H]1O[C@@H](n2cnc3c(OCc4cc(F)c(F)c(F)c4)ncnc32)[C@H](O)[C@@H]1O [Compound 200]
10 | 1 to 20 | C[C@H]1O[C@@H](n2c(NCCO)nc3c(OCc4ccc([N+](=O)[O-])cc4)ncnc32)[C@H](O)[C@@H]1O [Compound 21]
11 | < 1 | C[C@H]1O[C@@H](n2c(NC3CCCC3)nc3c(OCc4ccc(C#N)cc4)ncnc32)[C@H](O)[C@@H]1O [Compound 12]
12 | 1 to 20 | C[C@H]1O[C@@H](n2c(NCc3ccc(C#N)nc3)nc3c(OCc4ccc(C#N)cc4)ncnc32)[C@H](O)[C@@H]1O [Compound 70]
13 | < 1 | C[C@H]1O[C@@H](n2c(N[C@@H]3CCC(F)(F)C3)nc3c(OCc4ccc(C#N)cc4)ncnc32)[C@H](O)[C@@H]1O [Compound 81]
14 | 20 to 500 | C[C@H]1O[C@@H](n2c(NCCC3CCN(C)CC3)nc3c(OCc4ccc([N+](=O)[O-])cc4)ncnc32)[C@H](O)[C@@H]1O [Compound 34]
15 | 1 to 20 | C[C@H]1O[C@@H](n2c(NCC3CCC(F)(F)CC3)nc3c(OCc4ccc(OC(F)F)nc4)ncnc32)[C@H](O)[C@@H]1O [Compound 116]
16 | 1 to 20 | C[C@H]1O[C@@H](n2c(N[C@H]3CC[C@](C)(O)CC3)nc3c(OCc4ccc(OC(F)F)cc4)ncnc32)[C@H](O)[C@@H]1O [Compound 121]

test system: stimulated primary human T cells; experiment: T cell proliferation assay, Condition B (X-VIVO15, 2% HSA and 0.1% AAG); type: cell-based; conditions: Homo sapiens, T-cell, 96 h; Condition B: X-VIVO15 medium containing HSA and α1-Acid Glycoprotein; anti-CD3/anti-CD28 beads, ATP, 4 days; CFSE-lo T cells
Protocol: as §1
Condition B: X-VIVO15, 2% Human Serum Albumin (HSA) and 0.1% α-1-Acid Glycoprotein (AAG)
as §2, §3, §4, §5, §6, §7, §8

Row | SMILES | IC50 [nM]
17 | C[C@H]1O[C@@H](n2cnc3c(N(C)Cc4ccc([N+](=O)[O-])cc4)ncnc32)[C@H](O)[C@@H]1O [Compound 177] | > 500
18 | C[C@H]1O[C@@H](n2c(NC3CCCC3)nc3c(OCc4ccc(C#N)nc4)ncnc32)[C@H](O)[C@@H]1O [Compound 74] | 20 to 500
19 | C[C@H]1O[C@@H](n2cnc3c(OCc4cc(F)c(F)c(F)c4)ncnc32)[C@H](O)[C@@H]1O [Compound 200] | > 500
20 | C[C@H]1O[C@@H](n2c(NCCO)nc3c(OCc4ccc([N+](=O)[O-])cc4)ncnc32)[C@H](O)[C@@H]1O [Compound 21] | 20 to 500
21 | C[C@H]1O[C@@H](n2c(NC3CCCC3)nc3c(OCc4ccc(C#N)cc4)ncnc32)[C@H](O)[C@@H]1O [Compound 12] | 20 to 500
22 | C[C@H]1O[C@@H](n2c(NCc3ccc(C#N)nc3)nc3c(OCc4ccc(C#N)cc4)ncnc32)[C@H](O)[C@@H]1O [Compound 70] | 20 to 500
23 | C[C@H]1O[C@@H](n2c(N[C@@H]3CCC(F)(F)C3)nc3c(OCc4ccc(C#N)cc4)ncnc32)[C@H](O)[C@@H]1O [Compound 81] | 20 to 500
24 | C[C@H]1O[C@@H](n2c(NCCC3CCN(C)CC3)nc3c(OCc4ccc([N+](=O)[O-])cc4)ncnc32)[C@H](O)[C@@H]1O [Compound 34] | 20 to 500
25 | C[C@H]1O[C@@H](n2c(NCC3CCC(F)(F)CC3)nc3c(OCc4ccc(OC(F)F)nc4)ncnc32)[C@H](O)[C@@H]1O [Compound 116] | 20 to 500
26 | C[C@H]1O[C@@H](n2c(N[C@H]3CC[C@](C)(O)CC3)nc3c(OCc4ccc(OC(F)F)cc4)ncnc32)[C@H](O)[C@@H]1O [Compound 121] | 20 to 500
